Measured values from article PMC9499506, “TNF-α and IL-1β Modulate Blood-Brain Barrier Permeability and Decrease Amyloid-β Peptide Efflux in a Human Blood-Brain Barrier Model” (International Journal of Molecular Sciences, 2022).

What was measured:
BLECs [1] = assay: Immunostaining of tight junction proteins in BLECs (localization, area fraction staining); assay type: cell-based, human; details: 10 ng·mL^−1, 24 h; for BLEC morphology and TJ protein localization: immunofluorescence of ZO-1, occludin, claudin-3, claudin-5
Protocol: After 24 h of treatment with or without proinflammatory cytokines, BLECs were fixed and permeabilized, as described in Table 1. Then, a blocking step was performed with Sea Block Blocking Buffer (#37527 from Thermofisher, Rockford, IL, USA) for 30 min. BLECs were incubated for 1 h with the primary antibody in phosphate buffered saline, calcium-magnesium-free (PBS-CMF; 0.2 g·L^−1 KH2PO4, 8.0 g·L^−1 NaCl, 2.87 g·L^−1 Na2HPO4–12H2O, and 0.2 g·L^−1 KCl) with 2% (v/v) normal goat serum (NGS) at room temperature (RT) against targeted proteins, as described in Table 1.
After three washes with PBS-CMF supplemented with 2% NGS, BLECs were incubated with secondary polyclonal antibody (goat anti-rabbit Alexa 568, A11036, Molecular Probes, Eugene, OR, USA) diluted 1:500 in PBS-CMF supplemented with 2% NGS in the dark for 30 min at RT. Then, ProLong™ Diamond Antifade Mountant with DAPI (#P36962, Invitrogen) was used for nuclei staining and mounting. The stained slides were conserved in the fridge. The staining images were taken using a Leica microscope (DMRD; Leica Microsystems, Wetzlar, Germany) and processed using ImageJ software.
Claudin-3 and claudin-5 area fraction staining were subsequently quantified within the BLECs using ImageJ software. Staining images from the same experiment were taken with the same threshold according to the staining, and could thus be compared with each other. Due to the absence of BLEC delineation, the total fraction area staining for each image was thus quantified and normalized by the number of nuclei. Studies were performed with at least three independent experiments and at least three randomized staining images per experiment containing around 50 BLECs each.

BLECs [2] = assay: Western immunoblotting of receptors/transporters involved in Aβ peptide transport in BLECs; assay type: cell-based, human; details: 10 ng·mL^−1, 24 h; for downregulation of BCRP protein level compared to control / downregulation of LRP1 protein level compared to control: normalized to β-actin
Protocol: Each condition was studied in triplicate.
After 24 h of treatments with or without proinflammatory cytokines, BLECs were washed twice with cold RH buffer and scraped with 70 μL of RIPA 1X lysis buffer (10 mM Tris-Cl (pH 8.0), 1 mM EDTA, 0.5 mM EGTA, 1% Triton X-100, 0.1% sodium deoxycholate, 0.1% SDS, 140 mM NaCl) (Merck Millipore, Burlington, MA, USA) or UT4 lysis buffer (7M Urea, 2M Thiourea, 4% CHAPS), both supplemented with a cocktail of phosphatase and protease inhibitors (1% protease inhibitors cocktail #P8340; 1% phosphatase inhibitors cocktail 1 P2850; 1% phosphatase inhibitors cocktail 2 #P5726; 1% protease inhibitors cocktail #P8340) purchased from Sigma-Aldrich (Lyon, France). Then, a centrifugation at 10,000 rpm for 10 min at 4 °C was achieved to save the supernatant of the lysate. This was later sonicated two times for 5 s on ice. The concentration of the protein lysate was quantified using the Bradford method (#5000006; rad, Munich, Germany). The protein samples were then stored at −20 °C.
20 μg of total protein was mixed with Laemmli 4X (#1610747; Biorad, Munich, Germany) supplemented with β-mercaptoethanol (Sigma-Aldrich, Germany). Depending on the protein target, details of the denaturation and reduction steps of the protein extract are described in Table 3. Then, the protein mixes were electrophoresed using Criterion™ TGX™ (Tris-Glycine eXtended) precast gels (Biorad, Munich, Germany) and subsequently electrotransferred to nitro-cellulose membranes (GE Healthcare, Munich, Germany). Once the previous step was completed, Tris-buffered saline 0.1% Tween 20 (TBST; 20 mM Tris-HCl, pH 8.0, 500 mM NaCl, 0.1% Tween 20) supplemented with 5% skimmed milk was added on membrane to block nonspecific binding sites for 1 h under agitation at RT. Membranes were incubated in the appropriate primary antibodies (as described in Table 3) and incubated at 4 °C overnight, except β-actin (20 min at RT).
The following morning, the membranes were rinsed with TBST three times for 5 min each under agitation, and then incubated with the horseradish peroxidase-conjugated secondary antibody anti-rabbit (1:8000, Dako/Agilent Technologies, Inc., Santa Clara, CA, USA) or secondary antibody anti-mouse (1:5000, Dako/Agilent Technologies, Inc., Santa Clara, CA, USA) for 1 h at RT. […] Quantification of the relative densities of bands was performed with TotalLab TL 100 1D Gel Analysis software (Nonlinear Dynamics, Newcastle, UK). The protein expression normalization was conducted with anti-β-actin. Studies were performed with at least three independent experiments, with at least two Western immunoblottings per experiment.

[3] = immunofluorescence, ImageJ, normalized by number of nuclei

Substance | BLEC morphology and TJ protein localization (BLECs [1]) | increase of claudin-5 area fraction staining compared to IL-1β treatment (BLECs [1]; [3]) [%] | increase of claudin-5 area fraction staining compared to control condition (BLECs [1]; [3]) [%] | claudin-3 area fraction staining, increase compared to IL-1β treatment (BLECs [1]; immunofluorescence, ImageJ, normalized by number of nuclei, printed as 'at') [%] | P-gp protein expression compared to control (BLECs [2]) | PICALM protein expression compared to control (BLECs [2]) | RAGE protein expression compared to control (BLECs [2]) | downregulation of BCRP protein level compared to control (BLECs [2]) [%] | downregulation of LRP1 protein level compared to control (BLECs [2]) [%]
tumor necrosis factor-α [TNF-α] | induces a change in BLEC morphology and an increase of claudin-3 and claudin-5 cytoplasmic staining | 162.1 | 161.8 | 129.8 | no significant change | did not affect PICALM protein expression | no significant change | 73.4 | 41.9
interleukin-1β [IL-1β] | did not cause changes in BLEC morphology and TJ protein localization | – | – | – | no significant change | induced an increase of PICALM protein expression | no significant change | 49.0 | 45.2
